Assay results as given in patent US10226453B2, “3-(1H-indol-2-yl)-1H-pyrazolo[4,3-B]pyridines and therapeutic uses thereof” (Samumed, LLC, priority 2015, dated 2019).

Legend:
[1] = system: primary human fibroblasts derived from IPF patients (LL29 cells) treated with TGF-β1; experiment: Inhibition of the fibrotic process: αSMA staining in TGF-β1 treated primary human fibroblasts from IPF patients (LL29 cells); assay type: cell-based; settings: Fibroblast, 96 h, TGF-β1 20 ng/mL, 4 days; for EC50: % αSMA positive cells
Outline: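 LL29 cells plated in F12 with 1% FBS, compounds added as 11-point 1:2 series (10 μM to 1.87 nM, 0.1% DMSO), then TGF-β1 20 ng/mL; 4 days at 37 °C. Fixed, αSMA immunostained, imaged; SYTOX-positive cells excluded. % αSMA-positive cells normalized to TGF-β1 wells; EC50 by non-linear regression, or % inhibition at 10 μM.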

[2] = system: Wnt activity (Sp5-Luc reporter, SW480 colon carcinoma cells); experiment: Wnt activity screening assay: Sp5-Luc reporter gene in SW480 colon carcinoma cells; assay type: cell-based; settings: Homo sapiens; for EC50: overnight incubation, 10-point curve from 10 μM; for inhibition at 10 µM: given where EC50 >10 μM, read-out: percent inhibition at 10 μM
Outline: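 Wnt-driven firefly luciferase in SW480 colon carcinoma cells reports pathway activity after overnight compound exposure (10 μM top concentration, 3-fold steps). Signal is normalized to DMSO controls.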

SMILES	EC50 [1]	EC50 [2]	inhibition at 10 µM [2]	inhibition at 10 µM ([1]; given where EC50 >10 μM, 10 μM, read-out: percent inhibition at 10 μM)
CC(C)(C)C(=O)Nc1cncc(-c2ccc3[nH]nc(-c4cc5c(-c6cccc(F)c6)cccc5[nH]4)c3n2)c1 [Compound 8, N-(5-(3-(4-(3-Fluorophenyl)-1H-indol-2-yl)-1H-pyrazolo[4,3-b]pyridin-5-yl)pyridin-3-yl)pivalamide]	3.67 µM	2.93 µM		
CN(C)Cc1cncc(-c2ccc3[nH]nc(-c4cc5c(-c6ccc(F)cc6)cccc5[nH]4)c3n2)c1 [Compound 41, 1-(5-(3-(4-(4-Fluorophenyl)-1H-indol-2-yl)-1H-pyrazolo[4,3-b]pyridin-5-yl)pyridin-3-yl)-N,N-dimethylmethanamine]	0.544 µM	0.362 µM		
Fc1ccc(-c2cccc3[nH]c(-c4n[nH]c5ccc(-c6cncnc6)nc45)cc23)cc1 [Compound 55, 3-(4-(4-Fluorophenyl)-1H-indol-2-yl)-5-(pyrimidin-5-yl)-1H-pyrazolo[4,3-b] pyridine]	0.89 µM	1.31 µM		
Fc1ccccc1-c1cccc2[nH]c(-c3n[nH]c4ccc(-c5cncc(CN6CCCCC6)c5)nc34)cc12 [Compound 71, 3-(4-(2-Fluorophenyl)-1H-indol-2-yl)-5-(5-(piperidin-1-ylmethyl)pyridin-3-yl)-1H-pyrazolo[4,3-b]pyridine]	0.725 µM	0.663 µM		
Fc1ccccc1-c1cccc2[nH]c(-c3n[nH]c4ccc(-c5cncc(CNCc6ccccc6)c5)nc34)cc12 [Compound 80, N-Benzyl-1-(5-(3-(4-(2-fluorophenyl)-1H-indol-2-yl)-1H-pyrazolo[4,3-b]pyridin-5-yl)pyridin-3-yl)methanamine]	2.49 µM	> 10 µM	44%	
c1cncc(-c2ccc3[nH]nc(-c4cc5c(-c6cccnc6)cccc5[nH]4)c3n2)c1 [Compound 88, 5-(Pyridin-3-yl)-3-(4-(pyridin-3-yl)-1H-indol-2-yl)-1H-pyrazolo[4,3-b] pyridine]	0.088 µM	0.185 µM		
CN(C)Cc1cncc(-c2ccc3[nH]nc(-c4cc5c(-c6cccnc6)cccc5[nH]4)c3n2)c1 [Compound 97, N,N-Dimethyl-1-(5-(3-(4-(pyridin-3-yl)-1H-indol-2-yl)-1H-pyrazolo[4,3-b]pyridin-5-yl)pyridin-3-yl)methanamine]	0.451 µM	0.415 µM		
Nc1cncc(-c2ccc3[nH]nc(-c4cc5c(-c6ccncc6)cccc5[nH]4)c3n2)c1 [Compound 115, 5-(3-(4-(Pyridin-4-yl)-1H-indol-2-yl)-1H-pyrazolo[4,3-b]pyridin-5-yl) pyridin-3-amine]	0.041 µM	0.067 µM		
Cc1ccncc1-c1ccc2[nH]nc(-c3cc4c(-c5ccncc5)cccc4[nH]3)c2n1 [Compound 117, 5-(4-Methylpyridin-3-yl)-3-(4-(pyridin-4-yl)-1H-indol-2-yl)-1H-pyrazolo [4,3-b]pyridine]	0.197 µM	0.299 µM		
c1cc(-c2ccncc2)c2cc(-c3n[nH]c4ccc(-c5cncc(CN6CCCCC6)c5)nc34)[nH]c2c1 [Compound 127, 5-(5-(Piperidin-1-ylmethyl)pyridin-3-yl)-3-(4-(pyridin-4-yl)-1H-indol-2-yl)-1H-pyrazolo[4,3-b]pyridine]	8.9 µM	5.17 µM		
c1cc(-c2ccncc2)c2cc(-c3n[nH]c4ccc(-c5cncc(CNCC6CCCC6)c5)nc34)[nH]c2c1 [Compound 137, 1-Cyclopentyl-N-((5-(3-(4-(pyridin-4-yl)-1H-indol-2-yl)-1H-pyrazolo[4,3-b]pyridin-5-yl)pyridin-3-yl)methyl)methanamine]	0.701 µM	7.16 µM		
c1ccc(-c2ccc3[nH]nc(-c4cc5c(-c6ccncc6)cccc5[nH]4)c3n2)nc1 [Compound 140, 5-(Pyridin-2-yl)-3-(4-(pyridin-4-yl)-1H-indol-2-yl)-1H-pyrazolo[4,3-b] pyridine]	0.52 µM	3.06 µM		
FC1(F)CCN(Cc2cncc(-c3ccc4[nH]nc(-c5cc6c(-c7ccccn7)cccc6[nH]5)c4n3)c2)C1 [Compound 166, 5-(5-((3,3-Difluoropyrrolidin-1-yl)methyl)pyridin-3-yl)-3-(4-(pyridin-2-yl)-1H-indol-2-yl)-1H-pyrazolo[4,3-b]pyridine]	0.164 µM	0.432 µM		
c1ccc(-c2cccc3[nH]c(-c4n[nH]c5ccc(-c6cncnc6)nc45)cc23)nc1 [Compound 167, 3-(4-(Pyridin-2-yl)-1H-indol-2-yl)-5-(pyrimidin-5-yl)-1H-pyrazolo[4,3-b] pyridine]	0.201 µM	0.431 µM		
CCCCC(=O)Nc1cncc(-c2ccc3[nH]nc(-c4cc5c(N6CCCCC6)cccc5[nH]4)c3n2)c1 [Compound 187, N-(5-(3-(4-(Piperidin-1-yl)-1H-indol-2-yl)-1H-pyrazolo[4,3-b]pyridin-5-yl)pyridin-3-yl)pentanamide]	2.04 µM	0.572 µM		
c1ccc(-c2ccc3[nH]nc(-c4cc5c(N6CCCCC6)cccc5[nH]4)c3n2)nc1 [Compound 196, 3-(4-(Piperidin-1-yl)-1H-indol-2-yl)-5-(pyridin-2-yl)-1H-pyrazolo[4,3-b] pyridine]	> 10 µM	> 10 µM	6.2%	5.2%
Cc1ccncc1-c1ccc2[nH]nc(-c3cc4c(N5CCN(C)CC5)cccc4[nH]3)c2n1 [Compound 229, 3-(4-(4-Methylpiperazin-1-yl)-1H-indol-2-yl)-5-(4-methylpyridin-3-yl)-1H-pyrazolo[4,3-b]pyridine]	4.92 µM	2.02 µM		
CN1CCN(c2cccc3[nH]c(-c4n[nH]c5ccc(-c6cncc(NC(=O)c7ccccc7)c6)nc45)cc23)CC1 [Compound 235, N-(5-(3-(4-(4-Methylpiperazin-1-yl)-1H-indol-2-yl)-1H-pyrazolo[4,3-b]pyridin-5-yl)pyridin-3-yl)benzamide]	1.69 µM	4.06 µM		
CN1CCN(c2cccc3[nH]c(-c4n[nH]c5ccc(-c6cncnc6)nc45)cc23)CC1 [Compound 251, 3-(4-(4-Methylpiperazin-1l-yl)-1H-indol-2-yl)-5-(pyrimidin-5-yl)-1H-pyrazolo[4,3-b]pyridine]	7.79 µM	> 10 µM	38.4%	
c1cncc(-c2ccc3[nH]nc(-c4cc5ccccc5[nH]4)c3n2)c1 [Compound 256, 3-(1H-Indol-2-yl)-5-(pyridin-3-yl)-1H-pyrazolo[4,3-b]pyridine]	1.14 µM	1.3 µM		
CN(C)Cc1cncc(-c2ccc3[nH]nc(-c4cc5ccccc5[nH]4)c3n2)c1 [Compound 265, 1-(5-(3-(1H-Indol-2-yl)-1H-pyrazolo[4,3-b]pyridin-5-yl)pyridin-3-yl)-N,N-dimethylmethanamine]	0.521 µM	0.904 µM		
FC1(F)CCN(Cc2cncc(-c3ccc4[nH]nc(-c5cc6ccccc6[nH]5)c4n3)c2)C1 [Compound 278, 5-(5-((3,3-Difluoropyrrolidin-1-yl)methyl)pyridin-3-yl)-3-(1H-indol-2-yl)-1H-pyrazolo[4,3-b]pyridine]	0.09 µM	0.117 µM		
CN(C)c1cncc(-c2ccc3[nH]nc(-c4cc5c(-c6ccoc6)cccc5[nH]4)c3n2)c1 [Compound 315, 5-(3-(4-(Furan-3-yl)-1H-indol-2-yl)-1H-pyrazolo[4,3-b]pyridin-5-yl)-N,N-dimethylpyridin-3-amine]	0.631 µM	0.6 µM		
c1cc(-c2ccoc2)c2cc(-c3n[nH]c4ccc(-c5cncc(CNCC6CCCC6)c5)nc34)[nH]c2c1 [Compound 333, 1-Cyclopentyl-N-((5-(3-(4-(furan-3-yl)-1H-indol-2-yl)-1H-pyrazolo[4,3-b]pyridin-5-yl)pyridin-3-yl)methyl)methanamine]	0.955 µM	3.64 µM		
FC1(F)CCN(Cc2cncc(-c3ccc4[nH]nc(-c5cc6c(-c7cccs7)cccc6[nH]5)c4n3)c2)C1 [Compound 362, 5-(5-((3,3-Difluoropyrrolidin-1-yl)methyl)pyridin-3-yl)-3-(4-(thiophen-2-yl)-1H-indol-2-yl)-1H-pyrazolo[4,3-b]pyridine]	1.29 µM	3.24 µM		
CN(C)CCNc1cc(F)cc(-c2cccc3[nH]c(-c4n[nH]c5ccc(-c6cccnc6)nc45)cc23)c1 [Compound 452, N^1-(3-Fluoro-5-(2-(5-(pyridin-3-yl)-1H-pyrazolo[4,3-b]pyridin-3-yl)-1H-indol-4-yl)phenyl)-N^2,N^2-dimethylethane-1,2-diamine]	0.038 µM	0.239 µM		
CN(C)CCNc1cc(F)cc(-c2cccc3[nH]c(-c4n[nH]c5ccc(-c6cncc(CN7CCCCC7)c6)nc45)cc23)c1 [Compound 463, N^1-(3-Fluoro-5-(2-(5-(5-(piperidin-1-ylmethyl)pyridin-3-yl)-1H-pyrazolo [4,3-b]pyridin-3-yl)-1H-indol-4-yl)phenyl)-N^2,N^2-dimethylethane-1,2-diamine]	0.772 µM	1.39 µM		
CN(C)CCNc1cc(F)cc(-c2cccc3[nH]c(-c4n[nH]c5ccc(-c6cncnc6)nc45)cc23)c1 [Compound 475, N^1-(3-Fluoro-5-(2-(5-(pyrimidin-5-yl)-1H-pyrazolo[4,3-b]pyridin-3-yl)-1H-indol-4-yl)phenyl)-N^2,N^2-dimethylylethane-1,2-diamine]	0.306 µM	0.498 µM		
